From US8946426B2, “Substituted bicyclic heterocyclic compounds as gamma secretase modulators” (Janssen Pharmaceuticals, Inc., priority 2009, dated 2015)
pIC50: −log10 of the molar value.

Assays:
Aβtotal = assay: Method 1: Aβtotal sandwich ELISA in supernatant of SKNBE2 cells carrying APP 695-wild type (Tables 7a, 7b); type: cell-based
Method: (§1) Screening was carried out using SKNBE2 cells carrying the APP 695-wild type, grown in Dulbecco's Modified Eagle's Medium/Nutrient mixture F-12 (DMEM/NUT-mix F-12) (HAM) provided by Gibco (cat no. 31330-38) containing 5% Serum/Fe supplemented with 1% non-essential amino acids. Cells were grown to near confluency.
(§2) The screening was performed using the assay as described in Citron et al (1997) Nature Medicine 3: 67. Briefly, cells were plated in a 96-well plate at about 10^5 cells/ml one day prior to addition of compounds. Compounds were added to the cells in Ultraculture (Lonza, BE12-725F) supplemented with 1% glutamine (Invitrogen, 25030-024) for 18 Hours. The media were assayed by two sandwich ELISAs, for Aβ42 and Aβtotal. Toxicity of the compounds was assayed by WST-1 cell proliferation reagent (Roche, 1 644 807) according to the manufacturer's protocol.
To quantify the amount of Aβtotal in the cell supernatant, samples and standards were added to a 6E10-coated plate. The plate was allowed to incubate overnight at 4° C. in order to allow formation of the antibody-amyloid complex. Following this incubation and subsequent wash steps a selective anti-Aβ-antibody conjugate (biotinylated 4G8) was added and incubated for a minimum of 1 Hour in order to allow formation of the antibody-Amyloid-antibody-complex. After incubation and appropriate wash steps, a Streptavidine-Peroxidase-Conjugate was added, followed 30 minutes later by an addition of Quanta Blu fluorogenic peroxidase substrate according to the manufacturer's instructions (Pierce Corp., Rockford, Ill.).
(§3) To obtain the values reported in Table 7a, the sigmoidal dose response curves were analysed by computerised curve-fitting, with percent of inhibition plotted against compound concentration. A 4-parameter equation (model 205) in XLfit was used to determine the IC50. The top and the bottom of the curve were fixed to 100 and 0, respectively, and the hill slope was fixed to 1. The IC50 represents the concentration of a compound that is required for inhibiting a biological effect by 50% (Here, it is the concentration where Aβ peptide level is reduced by 50%).
(§4) To obtain the values reported in Table 7b, the data were calculated as percentage of the maximum amount of amyloid Beta 42 measured in the absence of the test compound. The sigmoidal dose response curves were analyzed using non-linear regression analysis with percentage of the control plotted against the log concentration of the compound. A 4-parameter equation was used to determine the IC50. The values reported in Table 7b are averaged IC50 values.

Aβ42 = assay: Method 1: Aβ42 sandwich ELISA in supernatant of SKNBE2 cells carrying APP 695-wild type (Tables 7a, 7b); type: cell-based
Method: as §1, §2
To quantify the amount of Aβ42 in the cell supernatant, commercially available Enzyme-Linked-Immunosorbent-Assay (ELISA) kits were used (Innotest® β-Amyloid(1-42), Innogenetics N.V., Ghent, Belgium). The Aβ42 ELISA was performed essentially according to the manufacturer's protocol. Briefly, the standards (dilutions of synthetic Aβ1-42) were prepared in polypropylene Eppendorf with final concentrations of 8000 down to 3.9 pg/ml (½ dilution step). Samples, standards and blanks (100 μl) were added to the anti-Aβ42-coated plate supplied with the kit (the capture antibody selectively recognizes the C-terminal end of the antigen). The plate was allowed to incubate 3 H at 25° C. in order to allow formation of the antibody-amyloid complex. Following this incubation and subsequent wash steps a selective anti-Aβ-antibody conjugate (biotinylated 3D6) was added and incubated for a minimum of 1 Hour in order to allow formation of the antibody-Amyloid-antibody-complex. After incubation and appropriate wash steps, a Streptavidine-Peroxidase-Conjugate was added, followed 30 minutes later by an addition of 3,3′,5,5′-tetramethylbenzidine (TMB)/peroxide mixture, resulting in the conversion of the substrate into a coloured product. This reaction was stopped by the addition of sulfuric acid (0.9 N) and the colour intensity was measured by means of photometry with an ELISA-reader with a 450 nm filter.
as §3, §4

[1] = Homo sapiens, SKNBE2, Table 7b, averaged IC50, non-linear regression of percentage of control vs log concentration, 4-parameter equation
[2] = Homo sapiens, Table 7a, SKNBE2 cells, compounds 18 h, XLfit 4-parameter fit of percent inhibition, top/bottom fixed to 100/0, hill slope 1
[3] = Table 7a, SKNBE2 cells, compounds 18 h, XLfit 4-parameter fit of percent inhibition, top/bottom fixed to 100/0, hill slope 1
[4] = Table 7b, averaged IC50, non-linear regression of percentage of control vs log concentration, 4-parameter equation

| Compound | pIC50 (Aβtotal; [1]) | pIC50 (Aβtotal; [2]) | pIC50 (Aβ42; [1]) | pIC50 (Aβ42; [2]) | pIC50 (Aβtotal; [3]) | pIC50 (Aβtotal; [4]) | pIC50 (Aβ42; [3]) | pIC50 (Aβ42; [4]) |
| --- | --- | --- | --- | --- | --- | --- | --- | --- |
| COc1cccc(-c2nc3c(Nc4ccc(-c5cnc(C)s5)c(OC)c4)cccn3c2C)c1 [Compound 4] | < 5.52 | < 5.52 | 7.20 | 7.17 | – | – | – | – |
| COc1cccc(-c2nc3c(Nc4ccc(-c5sc(C)nc5C)c(OC)c4)cccn3c2C)c1 [Compound 5] | < 5.52 | < 5.52 | 7.11 | 7.20 | – | – | – | – |
| COc1cccc(-c2nc3c(Nc4ccc(-c5cn(C)nc5C)c(OC)c4)cccn3c2C)c1 [Compound 6] | < 5.52 | < 5.52 | 6.99 | 7.11 | – | – | – | – |
| COc1cc(Nc2cccn3cc(-c4ccc(F)cc4)nc23)ccc1-c1oc(C)nc1C [Compound 7] | < 5.00 | < 5.00 | 6.52 | 6.48 | – | – | – | – |
| COc1cc(Nc2cccn3c(C)c(-c4ccccc4)nc23)ccc1-c1oc(C)nc1C [Compound 8] | < 5.30 | < 5.30 | 6.55 | 6.56 | – | – | – | – |
| COc1cc(Nc2cccc3c2nc(-c2ccc(F)cc2)n3C)ccc1-c1ccnn1C [Compound 9] | < 5.52 | < 5.52 | 6.62 | 6.40 | – | – | – | – |
| Cc1ncc(-c2ccc(Nc3cccc4c3nc(-c3ccc(F)cc3)n4C(C)C)nc2)o1 [Compound 15] | < 5.52 | – | 7.00 | – | – | – | – | – |
| COc1cccc(-c2nc3c(Nc4ccc(-c5ocnc5C)c(OC)c4)cccc3n2C)c1 [Compound 20] | – | – | – | – | < 6.00 | < 6.00 | 7.89 | 7.77 |
| Cc1ncoc1-c1ccc(Nc2cccc3c2nc(-c2cccc(Cl)c2)n3C)nc1 [Compound 32] | – | – | – | – | < 5.00 | < 5.00 | 6.63 | 6.55 |
| COc1cc(-c2nc3c(Nc4ccc(-c5ocnc5C)cn4)cccc3n2C)ccc1Cl [Compound 33] | – | – | – | – | < 5.00 | < 5.00 | 6.99 | 6.85 |
| Cc1cc(F)ccc1-c1cn2cccc(Nc3ccc(-c4ocnc4C)nc3)c2n1 [Compound 44] | – | – | – | – | < 5.00 | < 5.00 | 6.85 | 6.86 |
| Cc1ccc(-c2cn3cccc(Nc4ccc(-c5ocnc5C)nc4)c3n2)c(F)c1 [Compound 45] | – | – | – | – | < 4.52 | < 4.52 | 6.07 | 6.09 |
| COc1cc(Nc2cccn3cc(-c4cc(F)ccc4C)nc23)ccc1-c1cnc(C)o1 [Compound 48] | – | – | – | – | – | < 5.00 | – | 6.88 |
| Cc1ncc(-c2ccc(Nc3nccc4c3nc(-c3ccc(F)cc3F)n4C)cc2)o1 [Compound 53] | – | – | – | – | – | < 5.00 | – | 5.72 |
| Cc1ncc(-c2ccc(Nc3nccc4c3nc(-c3ccc(F)cc3F)n4C)cc2F)o1 [Compound 55] | – | – | – | – | – | < 5.00 | – | 5.52 |
| Cc1ncc(-c2ccc(Nc3nccn4cc(-c5ccc(F)cc5C)nc34)cc2)o1 [Compound 57] | – | – | – | – | – | < 5.00 | – | 5.97 |
| Cn1nccc1-c1ccc(Nc2cccc3c2nc(-c2ccc(F)cc2)n3C)nc1 [Compound 71] | – | – | – | – | – | < 5.52 | – | 5.71 |
| Cn1nccc1-c1ccc(Nc2cccc3c2nc(-c2ccc(F)cc2)n3C)cc1 [Compound 72] | – | – | – | – | – | < 5.52 | – | 6.02 |
| COc1cc(Nc2cccc3c2nc(-c2ccc(F)cc2)n3C)ccc1-c1ncnn1C [Compound 75] | – | – | – | – | – | < 5.52 | – | 5.94 |
| Cc1ncc(-c2ccc(Nc3cccc4c3nc(-c3ccc(F)cc3)n4C)cn2)s1 [Compound 76] | – | – | – | – | – | < 5.52 | – | 6.74 |
| COc1cc(Nc2cccc3c2nc(-c2ccc(F)cc2)n3C(C)C)ccc1-c1cnc(C)s1 [Compound 77] | – | – | – | – | – | < 5.52 | – | 7.37 |
| COc1cc(Nc2nccc3c2nc(-c2ccc(F)cc2F)n3C)ccc1-c1cnc(C)s1 [Compound 78] | – | – | – | – | – | < 5.52 | – | 6.56 |
| Cc1nc(C)c(-c2ccc(Nc3cccc4c3nc(-c3ccc(F)cc3)n4C)cc2)o1 [Compound 83] | – | – | – | – | – | < 5.52 | – | 7.23 |

More lines, now with the values ahead:

| pIC50 (Aβtotal; [1]) | pIC50 (Aβtotal; [2]) | pIC50 (Aβ42; [1]) | pIC50 (Aβ42; [2]) | pIC50 (Aβtotal; [3]) | pIC50 (Aβtotal; [4]) | pIC50 (Aβ42; [3]) | pIC50 (Aβ42; [4]) | Compound |
| --- | --- | --- | --- | --- | --- | --- | --- | --- |
| – | – | – | – | < 5.52 | < 5.52 | 7.31 | 7.55 | Cc1ncc(-c2ccc(Nc3cccc4c3nc(-c3ccc(F)cc3)n4C(C)C)cc2)o1 [Compound 19] |
| – | – | – | – | – | < 5.52 | – | 8.05 | COc1cccc(-c2nc3c(Nc4ccc(-c5cnc(C)o5)cc4)cccc3n2C(C)C)c1 [Compound 21] |
| – | – | – | – | < 5.52 | < 5.52 | 6.38 | 6.40 | Cc1ncc(-c2ccc(Nc3nccc4c3nc(-c3ccc(F)cc3)n4C)cc2)o1 [Compound 23] |
| – | – | – | – | < 5.52 | < 5.52 | 7.25 | 7.26 | COc1cc(Nc2cccc3c2nc(-c2ccc(F)cc2)n3C)ccc1-c1oc(C)nc1C [Compound 24] |
| – | – | – | – | – | < 5.52 | – | 6.17 | COc1cc(Nc2nccc3c2nc(-c2ccc(F)cc2)n3C(C)C)ccc1-c1cnc(C)o1 [Compound 27] |
| – | – | – | – | – | < 5.52 | – | 6.96 | Cc1ncc(-c2ccc(Nc3cccc4c3nc(-c3ccc(F)cc3)n4C(C)C)cc2F)o1 [Compound 28] |
| – | – | – | – | < 5.52 | < 5.52 | 7.54 | 7.55 | Cc1ncc(-c2ccc(Nc3cccc4c3nc(-c3ccc(F)cc3)n4C)cn2)o1 [Compound 29] |
| – | – | – | – | < 5.52 | < 5.52 | 7.80 | 6.96 | Cc1ncoc1-c1ccc(Nc2cccc3c2nc(-c2ccc(F)cc2)n3C(C)(C)C)cn1 [Compound 34] |
| – | – | – | – | – | < 5.52 | – | 6.42 | COCCn1c(C)nc2c(Nc3ccc(-c4cnc(C)s4)c(OC)c3)cccc21 [Compound 37] |
| – | – | – | – | < 5.52 | < 5.52 | 7.28 | 7.29 | Cc1ncc(-c2ccc(Nc3cccn4cc(-c5ccccc5C)nc34)cc2)o1 [Compound 39] |
| – | – | – | – | < 5.52 | < 5.52 | 7.02 | 6.91 | Cc1ncc(-c2ccc(Nc3cccn4cc(-c5ccc(F)cc5)nc34)cc2)o1 [Compound 42] |
| – | – | – | – | – | < 5.52 | – | 6.96 | Cc1ncc(-c2ccc(Nc3cccn4cc(-c5ccc(F)cc5C)nc34)cc2)o1 [Compound 46] |
| – | – | – | – | < 5.52 | < 5.52 | 6.31 | 6.35 | Cc1ccc(-c2cn3cccc(Nc4ccc(-c5cnc(C)o5)cc4)c3n2)c(F)c1 [Compound 47] |
| – | – | – | – | – | < 5.52 | – | 7.14 | Cc1ccc(C(F)(F)F)cc1-c1cn2cccc(Nc3ccc(-c4ocnc4C)nc3)c2n1 [Compound 51] |
| – | – | – | – | – | < 5.52 | – | 6.78 | COc1cc(Nc2cccn3cc(-c4ccccc4C)nc23)ccc1-c1cnc(C)s1 [Compound 52] |
| – | – | – | – | – | < 5.52 | – | 5.52 | Cc1ncc(-c2ccc(Nc3nc(Br)cn4cc(-c5ccc(F)cc5C)nc34)cc2)o1 [Compound 60] |
| – | – | – | – | – | < 5.52 | – | 5.97 | Cc1ncoc1-c1ccc(Nc2cccc3c2nc(COc2ccccc2)n3C)cn1 [Compound 61] |
| – | – | – | – | – | < 5.52 | – | 8.05 | COc1cc(-c2nc3c(Nc4ccc(-c5cnc(C)o5)c(OC)c4)cccc3n2C)ccc1Cl [Compound 62] |
| – | – | – | – | – | < 5.52 | – | 7.17 | CCn1c(CC2CC2)nc2c(Nc3ccc(-c4cnc(C)o4)c(OC)c3)cccc21 [Compound 64] |
| – | – | – | – | – | < 5.52 | – | 7.19 | Cn1cc(-c2ccc(Nc3cccc4c3nc(-c3ccc(F)cc3)n4C)cc2)cn1 [Compound 67] |
| – | – | – | – | – | < 5.52 | – | 7.12 | Cn1cc(-c2ccc(Nc3cccc4c3nc(-c3ccc(F)cc3)n4C)cn2)cn1 [Compound 70] |
